Values after ≈ are worked out from the molar mass of the structure shown. Where a SMILES comes first, the peptide text is derived from it. [ ]: non-standard residue; d: D form. The star is where a group is joined. Sta = CC(C)C[C@H](N)[C@@H](O)CC(=O)O; Isovaleryl = CC(C)CC(=O)*
Key:
T. rubrum NCPF0118 [1] = type: cell-based, Trichophyton rubrum; details: for effect of protease inhibitor alone on growth: 1 mM PMSF, 1 mg/L Pepstatin A, 10 µM E-64; for effect of protease inhibitor alone on growth / growth inhibition by protease inhibitor alone: 100 µM EDTA; for growth inhibition by protease inhibitor alone: RPMI-1640, 1 mg/L PMSF, 10 µM E64, 1 mg/L pepstatin
Description: (§1) Antifungal susceptibility testing to determine the MIC was conducted by the broth microdilution procedure for filamentous fungi (M38-A2) (Clinical & Laboratory Standards Institute (CLSI). 2008. Reference Method for Broth Dilution Antifungal Susceptibility Testing of Filamentous Fungi; Approved Standard - Second Edition (M38-A2). Clinical and Laboratory Standards Institute, Wayne, PA). This experiment was carried out in triplicate with triplicate samples in each experiment. The proteolytic stability of NP213 was assessed by determining NP213 MIC as described above versus T. rubrum NCPF0118 and T. interdigitale NCPF0335 in the presence of the following protease inhibitors; serine proteases (1 mM phenylmethylsulfonyl fluoride; PMSF), metalloproteases (100 µM ethylenediaminetetraacetic acid; EDTA), aspartyl proteases (1 mg/L Pepstatin A) and cysteine proteases (10 µM trans-epoxysuccinyl-L-leucylamido(4-guanidino)butane; E-64).
(§2) T. rubrum NCPF0118 and T. interdigitale NCPF0335 in RPMI-1640 liquid medium. MIC was determined by the broth microdilution procedure (CLSI, 2008). Metalloprotease inhibitor -100 µM EDTA; Serine protease inhibitor - 1 mg/L PMSF; Cysteine protease inhibitor -10 µM E64; Aspartyl protease inhibitor - 1 mg/L pepstatin.
(§3) Antifungal susceptibility testing was conducted by the broth microdilution procedure as described in CLSI Approved Standard M38-A2. All peptides were dissolved in sterile deionised water (40 mg/ml) and stored at -20° C. until required. All experiments were carried out in triplicate, with triplicate samples in each experiment.

[2] = system: T. interdigitale NCPF0335; type: cell-based; details: for effect of protease inhibitor alone on growth: 1 mM PMSF, 1 mg/L Pepstatin A, 10 µM E-64; for effect of protease inhibitor alone on growth / growth inhibition by protease inhibitor alone: 100 µM EDTA; for growth inhibition by protease inhibitor alone: RPMI-1640, 1 mg/L PMSF, 10 µM E64, 1 mg/L pepstatin
Description: as §1, §2, §3

[3] = system: T. rubrum NCPF0118 and T. interdigitale NCPF0335; test: Antifungal susceptibility testing, summary statements for both dermatophytes; type: cell-based; details: Example 4 summary
Description: as §1
Antifungal susceptibility testing was carried out as described above, but with the following modifications. RPMI-1640 medium was substituted for 0.5% (w/v) powdered nail, skin keratin or sheep’s wool keratin suspensions in 10 mM sodium phosphate buffer, pH 7.0 containing 0.0025% (w/v) AlamarBlue™ (ThermoFisher Scientific, UK). […]

T. rubrum NCPF0118 [4] = test: Metabolic activity (Alamar blue) of T. rubrum exposed to NP213 in dried nail lacquers or PEG4000 formulation; type: cell-based, Trichophyton rubrum
Description: NP213 (5 and 10% w/v) was formulated in 50% (v/v) PEG4000. Alternatively, NP213 was dissolved/suspended in the lacquer formulations at concentrations of 0, 5 or 10 % (w/v). 10 µl of each lacquer was applied to the base of a well in a flat-bottomed 96-well plate in triplicate wells and allowed to dry for 90 min. An inoculum of 3 × 10^3 cfu T. rubrum NCPF0118 was prepared in 1 × RPMI-1640 liquid medium and 200 µl was added to all wells containing lacquers and control wells containing no lacquer (growth control). An additional 3 wells per plate contained 200 µl RPMI-1640 liquid medium without inoculum to serve as sterility controls. To each well was added a minimal volume of Alamar blue solution (0.0025% (w/v) final concentration). Antifungal activity was determined based on changes in metabolic activity (due to metabolism of the cell viability indicator Alamar blue). Metabolic activity was monitored by fluorescence (Ex 530 nm/Em 590 nm) every 24 h for up to 168 h.

[5] = system: Trichophyton rubrum NCPF0118; test: Experimental model of dermatophyte nail infection on human nail fragments, colony counts; type: cell-based; details: daily application to dorsal side of infected nail; FIG. 15
Description: An experimental model of dermatophyte nail infection was optimized to simulate onychomycosis under laboratory conditions and to test the antifungal efficacy of NP213. As an inert support and to provide a moist atmosphere, sterile water agar plates were prepared in 90-mm Petri dishes (1.5% (w/v) agar in sterile-deionised water). Petri dishes were divided into three sections, and individual pieces of sterile silicone rubber tubing (1-cm diameter; 3-mm height) were placed in each section, allowing the investigation of three nail fragments per plate. This prevented direct contact between the nails and the agar surface or the lid of the Petri dish. Such a setup was necessary because agar contains components that can bind to cationic peptides, including NP213, inhibiting their diffusion and reducing activity. Silicon tubing is permeable to oxygen and carbon dioxide, and its use ensured oxygen access to support fungal growth. Its diameter was sufficiently small to stably support the nail fragments. Uninfected human nails (sourced under ethical approval) were cleaned of all residual skin and debris before cutting to size (approximately four fragments were obtained from an adult great toenail), and their surface area and thickness were determined using a micrometer. […] Samples were plated on potato dextrose agar and incubated at 30° C. for 14 days, and the colonies were counted.

| MIC (mg/L) T.rubrum NCPF0118 (T. rubrum NCPF0118 [1]) | MIC (mg/L) T. interdigitale NPCF0335 [2] | SMILES | effect of protease inhibitor alone on growth (T. rubrum NCPF0118 [1]) | growth inhibition by protease inhibitor alone (T. rubrum NCPF0118 [1]) | effect of protease inhibitor alone on growth [2] | growth inhibition by protease inhibitor alone [2] | other results |
| --- | --- | --- | --- | --- | --- | --- | --- |
| – | – | CC(C)C[C@H](NC(=O)[C@H]1O[C@@H]1C(=O)O)C(=O)NCCCCN=C(N)N (relative stereo) [Peptide E-64, trans-epoxysuccinyl-L-leucylamido(4-guanidino)butane] | no effect on the growth | did not inhibit growth | no effect on the growth | did not inhibit growth | – |
| – | – | O=C(O)CN(CCN(CC(=O)O)CC(=O)O)CC(=O)O [EDTA, ethylenediaminetetraacetic acid] | no effect on the growth | did not inhibit growth | no effect on the growth | did not inhibit growth | effect of metalloprotease inhibitor on the anti-fungal effect of the cyclic peptide [3]: enhanced |
| – | – | CC(C)CC(=O)N[C@H](C(=O)N[C@H](C(=O)N[C@@H](CC(C)C)[C@@H](O)CC(=O)N[C@@H](C)C(=O)N[C@@H](CC(C)C)[C@@H](O)CC(=O)O)C(C)C)C(C)C [Pepstatin A] (Isovaleryl-VV[Sta]A[Sta]-OH) | no effect on the growth | did not inhibit growth | no effect on the growth | did not inhibit growth | – |
| – | – | O=S(=O)(F)Cc1ccccc1 [PMSF, phenylmethylsulfonyl fluoride] | no effect on the growth | did not inhibit growth | no effect on the growth | did not inhibit growth | – |
| – | – | CC(C)C[C@H](NC(=O)[C@@H](O)[C@H](N)Cc1ccccc1)C(=O)O [Bestatin] | – | – | – | – | effect of metalloprotease inhibitor on the anti-fungal effect of the cyclic peptide [3]: enhanced |
| 62.5 mg/L (≈ 26.7 µM) | 3.9 mg/L (≈ 1.66 µM) | N=C(N)NCCC[C@@H]1NC(=O)[C@H](CCCNC(=N)N)NC(=O)[C@H](CCCNC(=N)N)NC(=O)[C@H](CCCNC(=N)N)NC(=O)[C@H](CCCNC(=N)N)NC(=O)[C@H](CCCNC(=N)N)NC(=O)[C@H](CCCNC(=N)N)NC(=O)[C@H](CCCNC(=N)N)NC(=O)[C@H](CCCNC(=N)N)NC(=O)[C@H](CCCNC(=N)N)NC(=O)[C@H](CCCNC(=N)N)NC(=O)[C@H](CCCNC(=N)N)NC(=O)[C@H](CCCNC(=N)N)NC(=O)[C@H](CCCNC(=N)N)NC(=O)[C@H](CCCNC(=N)N)NC1=O [NP203, cyclic 15R] | – | – | – | – | – |
| 250 mg/L (≈ 146 µM) | 15.6 mg/L (≈ 9.08 µM) | N=C(N)NCCC[C@@H]1NC(=O)[C@H](CCCNC(=N)N)NC(=O)[C@H](CCCNC(=N)N)NC(=O)[C@H](CCCNC(=N)N)NC(=O)[C@H](CCCNC(=N)N)NC(=O)[C@H](CCCNC(=N)N)NC(=O)[C@H](CCCNC(=N)N)NC(=O)[C@H](CCCNC(=N)N)NC(=O)[C@H](CCCNC(=N)N)NC(=O)[C@H](CCCNC(=N)N)NC(=O)[C@H](CCCNC(=N)N)NC1=O [NP202, cyclic 11 R] | – | – | – | – | – |
| 500 mg/L (≈ 640 µM) | 1000 mg/L (≈ 1280 µM) | N=C(N)NCCC[C@@H]1NC(=O)[C@H](CCCNC(=N)N)NC(=O)[C@H](CCCNC(=N)N)NC(=O)[C@H](CCCNC(=N)N)NC(=O)[C@H](CCCNC(=N)N)NC1=O [NP201, cyclic-5R] (cyclo(RRRRR)) | – | – | – | – | – |
| 1000 mg/L (≈ 915 µM) | 500 mg/L (≈ 457 µM) | N=C(N)NCCC[C@@H]1NC(=O)[C@H](CCCNC(=N)N)NC(=O)[C@H](CCCNC(=N)N)NC(=O)[C@H](CCCNC(=N)N)NC(=O)[C@H](CCCNC(=N)N)NC(=O)[C@H](CCCNC(=N)N)NC(=O)[C@H](CCCNC(=N)N)NC1=O [NP213, cyclic R-R-R-R-R-R-R] | – | – | – | – | antifungal activity in Roehm lacquer 1 compared to NP213 in 50% (v/v) PEG4000 (T. rubrum NCPF0118 [4]; 5% and 10% (w/v) NP213, metabolic activity up to 168 h, FIG. 1): lower; antifungal activity in Roehm lacquer 2 compared to NP213 in 50% (v/v) PEG4000 (T. rubrum NCPF0118 [4]; 5% and 10% (w/v) NP213, metabolic activity up to 168 h, FIG. 2): lower; antifungal activity in Roehm lacquer 3 compared to NP213 in 50% (v/v) PEG4000 (T. rubrum NCPF0118 [4]; 5% and 10% (w/v) NP213, metabolic activity up to 168 h, FIG. 3): lower; antifungal activity in Roehm lacquer 4 compared to NP213 in 50% (v/v) PEG4000 (T. rubrum NCPF0118 [4]; 5% and 10% (w/v) NP213, metabolic activity up to 168 h, FIG. 4): lower; antifungal activity in Roehm lacquer 5 compared to NP213 in 50% (v/v) PEG4000 (T. rubrum NCPF0118 [4]; 5% and 10% (w/v) NP213, metabolic activity up to 168 h, FIG. 5): lower; antifungal activity in Anacor lacquer C compared to NP213 in 50% (v/v) PEG4000 (T. rubrum NCPF0118 [4]; 5% and 10% (w/v) NP213, metabolic activity up to 168 h, FIG. 6): lower; antifungal activity in 2d lacquer compared to NP213 in 50% (v/v) PEG4000 (T. rubrum NCPF0118 [4]; 10% (w/v) NP213 in 2d lacquer, metabolic activity up to 168 h, FIG. 7): lower; efficacy in the known nail lacquers (T. rubrum NCPF0118 [4]; lacquers manufactured by Anacor and Roehm): not effective; MIC (mg/L) T.interdigitale NCPF0335 [2]: 500 mg/L (≈ 457 µM); time from beginning treatment until antifungal effects are seen [5]: ≤ 11 days |

Source: patent US20230301895A1, “NAIL FORMULATIONS AND TREATMENT REGIMES” (NOVABIOTICS LIMITED, priority 2020, published 2023)
